Measured values: patent EP2665736B1, “CORONA-LIKE (GUANIDYL)-OLIGOSACCHARIDIC DERIVATIVES AS CELL-P[…] FOR INTRACELLULAR DELIVERY OF COLLOIDAL T[…]” (Universita' Degli Studi Di Padova, priority 2011, dated 2012)

How the values were obtained:
[1] = system: MCF-7 cells; assay: Cytotoxicity test (MTT cell viability); assay type: cell-based, human; details: 0 to 100 µM, 24 hours incubation plus 48 hours growth
Procedure: (§1) The human MCF-7 breast adenocarcinoma and murine MC3T3-E1 embryonic fibroblast cell lines were growth in RPMI 1640 and DMEM medium, respectively, supplemented with 10% heated inactivated foetal bovine serum (FBS), 1% L-glutamine, 1% penicillin-streptomycin-amphotericin B mixture. All cells were maintained at 37 °C in humidified 5% CO2 atmosphere and splitted every 2-3 day.
(§2) MCF-7 and MC3T3-E1 cells were plated in 96-well flat bottomed microassay plates (1 × 10^4 cells/well) and grown for 24 hours. After complete adhesion, (arginyl)7-maltotriosyl-N-acetyl-amino-dodecanoic acid or 2 kDa polyethylenimine (PEI) as control were added to the culture media at increasing concentrations: from 0 to 100 µM. The cells were incubated for 24 hours at 37°C and then the medium was discarded by aspiration and replaced with 200 µl of fresh medium. The cells were grown for further 48 hours. Twenty microliters of 5 mg/mL of 3-(4,5-dimethylthiazol-2-yl)-2,5-diphenyltetrazolium bromide (MTT) in D-PBS were added to each well. […] The plates were gently shaken for 30 min and absorbance was measured at 570 nm with a reference wavelength of 630 nm. The cell viability was expressed as a percent viability of treated cells against untreated cells used as control. […]

[2] = system: MC3T3-E1 cells; assay: Cytotoxicity test (MTT cell viability); assay type: cell-based, murine; details: 0 to 100 µM, 24 hours incubation plus 48 hours growth
Procedure: as §1, §2

## (arginyl)7-maltotriosyl-N-acetyl-amino-dodecanoic acid
[1]
  IC50: > 100 µM
[2]
  IC50: > 100 µM
